Laboratory results as given in patent US7629318B2, “Immunosuppressant compounds, methods and uses related thereto” (priority 2002, dated 2009).
Values joined by “and” are separate entries in the source; they are usually repeats but may differ in a detail not shown here. Identical values can stand only once. Like-named read-outs stand apart in the source and are kept apart here. Numbered stars: 1 amine (or outer) side, 2 acyl side, 3 side chain; on linkers, the order of the positions; unused ones are H or OH. Square brackets hold non-standard residues; d marks the D form. Peptide text beside a SMILES is read from it. * marks the point of attachment. ξ: configuration not given here. Gly(1-amidinopiperidin-4-yl) = N=C(N)N1CCC([C@H](N)C(=O)O)CC1; X1 = CC(C)c1oc([C@H](CO)N[*:1])nc1C(=O)[*:2]; Pro(3R-Ph) = O=C(O)[C@H]1NCC[C@@H]1c1ccccc1; Tic = O=C(O)[C@@H]1Cc2ccccc2CN1; Cha = N[C@@H](CC1CCCCC1)C(=O)O; NHPhenethyl = c1ccc(CCN*)cc1; NMe(benzyl) = CN(Cc1ccccc1)*; ξDisc = O=C(O)C1NCc2ccccc21; Nle = CCCC[C@H](N)C(=O)O; X2 = OCCOCCN(Cc1ccccc1)*; NHBn = c1ccc(CN*)cc1

Experiments:
[1] = biological target: T1, LG2 (DR1: DRA1*0101 DRB1*0101) cells (Homo sapiens, UniProt P01903+P01911, A100R/D57E/F55L/F60I/F76Y/I96L/L162R/M171V/P40L/Q125E/R42F/V115G/Y59C); assay: Competitive binding to MHC II proteins expressed on LG2 cells; type: cell-based; details: LG2 (0101)
T1 construct: MHC II Proteins Expressed on PRIESS and LG2 Cells; endogenous in cells; host or cells: LG2 cells
Procedure: (§1) For use in the binding assay the cells were re-suspended in medium containing 1% FCS at a density of 2.5×10^6 cells/ml.
(§2) The assay was performed in sterile 96 well polystyrene microtiter plates. A 10 fold dilution series of compounds (16 nM-1615 μM) in 1% FCS was prepared from 5 or 10 mM compound stock solutions in 10% DMSO/water. 50 μl of each compound dilution were added in duplicates to 50 μl of a 16 μM solution of indicator peptide in 1% FCS. Cell binding was initiated by adding 100 μl of 2.5×10^6 cells/ml 1% FCS to each well. Controls were included containing the DMSO concentration present in the solution with the highest compound concentration. The cells were incubated at 37° C., 6% CO2. After 4 hours the cells were washed with 200 μl PBS and lysed in 200 μl lysis buffer (50 mM sodium phosphate, 150 mM sodium chloride, 1% (w/v) NP-40, 25 mM iodoacetamide, 1 mM PMSF, 3.1% protease inhibitor cocktail: 0.32 g/l of Chymostatin, Antipain, Pepstatin A, Soybean trypsin inhibitor and Leupeptin each, pH 7.5) for 10 min.
(§3) After washing with PBS, 190 μl of cell lysate were transferred to the appropriate wells of the capture plate and incubated for 2 h at 4° C. The wells were washed six times with 200 μl/well cooled (4 to 8° C.) of 1×DELFIA wash (Wallac-ADL-GmbH, Freiburg), incubated with 100 μl of cooled Europium-streptavidin conjugate (Wallac-ADL-GmbH, Freiburg; diluted 1/1000 with DELFIA assay buffer) for 30 minutes at 4° C., again washed six times with cooled 1×DELFIA wash and, finally, incubated with 200 μl cooled DELFIA enhancement solution (Wallac-ADL-GmbH, Freiburg) for one hour at room temperature before reading the time-resolved europium fluorescence at λex Eu^3+: 340 nm and λem Eu^3+: 613 (615) nm (Wallac Victor^2 1420 Multilabel Counter, Wallac-ADL-GmbH, Freiburg).

[2] = Stability of compounds in mouse blood plasma; type: in vitro ADME
Outline: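 Compounds at 5 μM final in rat, mouse or human plasma, incubated at 37 °C and sampled at 0, 6 and 24 h. Proteins precipitated with acetonitrile and the supernatant dried and reconstituted in 50% acetonitrile/0.1% TFA. PBS controls run for unstable compounds.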

[3] = test system: T-cell proliferation, lymph node cells of chimeric 0401-IE transgenic mice; details: for Immunsupressive assays DR4-LN (Max) % Inhibition: maximal inhibition; for immunosuppressive properties as measured by a T-cell activation assay: dose-response curves; for IC50: read-out: Immunsupressive assays DR4-LN (IC50); for Immunsupressive assays DR4-LN (Max) % Inhibition / IC50: DR4-LN
Outline: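 Antigen-primed lymph node cells (1.5×10^5/well) from mice lacking murine class II and carrying a chimeric human RA-associated class II transgene, cultured 3 days with ovalbumin at half-maximal dose plus compound (~0.1–200 uM) in serum-free HL-1. Proliferation read by 3H-thymidine incorporation over the final 16 h.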

[4] = biological target: T2, Priess (DR4Dw4: DRA1*0101 DRB1*0401) cells (Homo sapiens, UniProt P01903+P01911, A100K/A169T/F76Y/I96L/K127E/L162R/M171V/N62H/P40V/Q125Y/R42H/S133A/S149N/S66Y/V115G/V209L/W38E); assay: Competitive binding to MHC II proteins expressed on Priess cells; type: cell-based
T2 construct: MHC II Proteins Expressed on PRIESS and LG2 Cells; endogenous in cells; host or cells: Priess cells
Procedure: as §1, §2, §3

[5] = Cell binding IC50 (uM) LG2 (0101)

SMILES	IC50 [1, 5]	Stability (Arbitrary units) Mouse 24 h [2] [Arbitrary units]	Immunsupressive assays DR4-LN (Max) % Inhibition [3] [%]	immunosuppressive properties as measured by a T-cell activation assay [3]	IC50 [3]	IC50 [4] [µM]	binding to MHC class II protein expressed on the surface of Priess cells ([4]; compared to the Arg-containing equivalent)	Stability (Arbitrary units) Mouse 6 h [2] [Arbitrary units]	immunosuppressive properties as measured by a T-cell activation assay, versus Arg equivalent ([3]; dose-response curve, compared to the Arg-containing peptide)	IC50 ([1]; read-out: Cell binding IC50 (uM) LG2 (0101)) [µM]	IC50 ([4]; read-out: Cell binding IC50 (uM) Priess (0401), Priess (0401)) [µM]
CCCC[C@H](NC(=O)[C@@H]1Cc2ccccc2CN1C(=O)[C@@H](NC(=O)[C@H](CC1CCCCC1)NC(C)=O)C1CCN(C(=N)N)CC1)C(=O)N(C)Cc1ccccc1 [Compound P74, Ac-Cha-Gpg-Tic-Nle-N(Me)Bn] (Ac-[Cha][Gly(1-amidinopiperidin-4-yl)][Tic][Nle]-{NMe(benzyl)})	6.1 µM	97	102	immunosuppressive properties	16 µM and 18 µM	9.2	Improved binding				
CCCC[C@H](NC(=O)C1c2ccccc2CN1C(=O)[C@@H](NC(=O)[C@H](CC1CCCCC1)NC(C)=O)C1CCN(C(=N)N)CC1)C(=O)N(C)Cc1ccccc1 (single isomer, unassigned) [Compound P78-1]	4.6 µM	18			34 µM	9.8		93			
CSCC[C@H](NC(=O)[C@@H]1Cc2ccccc2CN1C(=O)[C@@H](NC(=O)[C@H](CC1CCCCC1)NC(C)=O)C1CCN(C(=N)N)CC1)C(=O)N(CCOCCO)Cc1ccccc1 [Compound P102, Ac-Cha-Gpg-Tic-Met-N(Bn)CH2CH2OCH2CH2OH] (Ac-[Cha][Gly(1-amidinopiperidin-4-yl)][Tic]M-X2)		101	60		110 µM			105			
CSCC[C@H](NC(=O)C1c2ccccc2CN1C(=O)[C@@H](NC(=O)[C@H](CC1CCCCC1)NC(C)=O)C1CCN(C(=N)N)CC1)C(N)=O (stereo partly drawn) [Compound P66-1, Ac-Cha-Gpg-Disc-Met-NH2] (Ac-[Cha][Gly(1-amidinopiperidin-4-yl)][ξDisc]M-NH2)	6 µM	112	20		120 µM	7.8		115			
CCCC[C@H](NC(=O)[C@@H]1Cc2ccccc2CN1C(=O)[C@H](CCCNC(=N)N)NC(=O)[C@H](CC1CCCCC1)NC(C)=O)C(=O)N(C)Cc1ccccc1 [Compound P71, Ac-Cha-Arg-Tic-Nle-N(Me)Bn] (Ac-[Cha]R[Tic][Nle]-{NMe(benzyl)})			102		19 µM			117			
CSCC[C@H](NC(=O)[C@@H]1Cc2ccccc2CN1C(=O)[C@H](CCCNC(=N)N)NC(=O)[C@H](CC1CCCCC1)NC(C)=O)C(=O)N1CC[C@H](c2ccccc2)[C@H]1C(N)=O [Compound P31, Ac-Cha-Arg-Tic-Met-βPhPro-NH2] (Ac-[Cha]R[Tic]M[Pro(3R-Ph)]-NH2)	8.5 µM	56	64		18 µM	3.7		86			
CCCC[C@H](NC(=O)[C@@H]1Cc2ccccc2CN1C(=O)[C@@H](NC(=O)[C@H](CC1CCCCC1)NC(C)=O)C1CCN(C(=N)N)CC1)C(=O)N1CC[C@H](c2ccccc2)[C@H]1C(=O)N[C@@H](CO)c1nc(C(=O)N(C)C)c(C(C)C)o1 [Compound P53, Ac-Cha-Gpg-Tic-Nle-βPhPro-[S(oxaz)L]-NMe2] (Ac-[Cha][Gly(1-amidinopiperidin-4-yl)][Tic][Nle][Pro(3R-Ph)][X1]-NMe2)	3.5 µM	115	100	immunosuppressive properties	40 µM	3		117	improved immunosuppressive properties		
CCCC[C@H](NC(=O)[C@@H]1Cc2ccccc2CN1C(=O)[C@@H](NC(=O)[C@H](CC1CCCCC1)NC(C)=O)C1CCN(C(=N)N)CC1)C(=O)NCCc1ccccc1 [Compound P69, Ac-Cha-Gpg-Tic-Nle-N(H)CH2CH2Ph] (Ac-[Cha][Gly(1-amidinopiperidin-4-yl)][Tic][Nle]-NHPhenethyl)	6.2 µM and 8.2 µM	85	101	immunosuppressive properties	19 µM	11		115			
CCCC[C@H](NC(=O)C1c2ccccc2CN1C(=O)[C@@H](NC(=O)[C@H](CC1CCCCC1)NC(C)=O)C1CCN(C(=N)N)CC1)C(=O)N(C)Cc1ccccc1 (single isomer, unassigned) [Compound P76-1, Ac-Cha-Gpg-Disc-Nle-N(Me)Bn]		16	103		34 µM			93		4.6	9.8
CCCC[C@H](NC(=O)[C@@H]1Cc2ccccc2CN1C(=O)[C@@H](NC(=O)[C@H](CC1CCCCC1)NC(C)=O)C1CCN(C(=N)N)CC1)C(=O)NCc1ccccc1 [Compound P68, Ac-Cha-Gpg-Tic-Nle-N(H)Bn] (Ac-[Cha][Gly(1-amidinopiperidin-4-yl)][Tic][Nle]-NHBn)	7.2 µM	13	102		18 µM	12		49			
CSCC[C@H](NC(=O)[C@@H]1Cc2ccccc2CN1C(=O)[C@@H](NC(=O)[C@H](CC1CCCCC1)NC(C)=O)C1CCN(C(=N)N)CC1)C(=O)N1CC[C@H](c2ccccc2)[C@H]1C(=O)N[C@@H](CO)c1nc(C(=O)N(C)C)c(C(C)C)o1 [Compound P60, Ac-Cha-Gpg-Tic-Met-βPhPro-[S(oxaz)L]-NMe2] (Ac-[Cha][Gly(1-amidinopiperidin-4-yl)][Tic]M[Pro(3R-Ph)][X1]-NMe2)	1.5 µM	95	97		29 µM	2.1		111			
CCCC[C@H](NC(=O)[C@@H]1Cc2ccccc2CN1C(=O)[C@H](CCCNC(=N)N)NC(=O)[C@H](CC1CCCCC1)NC(C)=O)C(=O)N1CC[C@H](c2ccccc2)[C@H]1C(=O)N[C@@H](CO)c1nc(C(=O)N(C)C)c(C(C)C)o1 [Compound P51, Ac-Cha-Arg-Tic-Nle-βPhPro-[S(oxaz)L]-NMe2] (Ac-[Cha]R[Tic][Nle][Pro(3R-Ph)][X1]-NMe2)	3 µM	136	100		38 µM and 36 µM						
CCCC[C@H](NC(=O)[C@@H]1Cc2ccccc2CN1C(=O)[C@@H](NC(=O)[C@H](CC1CCCCC1)NC(C)=O)C1CCN(C(=N)N)CC1)C(=O)N(CCOCCO)Cc1ccccc1 [Compound P101, Ac-Cha-Gpg-Tic-Nle-N(Bn)CH2CH2OCH2CH2OH] (Ac-[Cha][Gly(1-amidinopiperidin-4-yl)][Tic][Nle]-X2)		94	100	immunosuppressive properties	69 µM and 66 µM			107			
